For orientation: IC50 means the concentration that gives 50% inhibition.

Structures are written as SMILES. Where only a bound is given, the exact number is not on record here.

In one assay the target is T1, JAK3 (Homo sapiens, UniProt P52333).
T1 sequence (P52333 1-1124): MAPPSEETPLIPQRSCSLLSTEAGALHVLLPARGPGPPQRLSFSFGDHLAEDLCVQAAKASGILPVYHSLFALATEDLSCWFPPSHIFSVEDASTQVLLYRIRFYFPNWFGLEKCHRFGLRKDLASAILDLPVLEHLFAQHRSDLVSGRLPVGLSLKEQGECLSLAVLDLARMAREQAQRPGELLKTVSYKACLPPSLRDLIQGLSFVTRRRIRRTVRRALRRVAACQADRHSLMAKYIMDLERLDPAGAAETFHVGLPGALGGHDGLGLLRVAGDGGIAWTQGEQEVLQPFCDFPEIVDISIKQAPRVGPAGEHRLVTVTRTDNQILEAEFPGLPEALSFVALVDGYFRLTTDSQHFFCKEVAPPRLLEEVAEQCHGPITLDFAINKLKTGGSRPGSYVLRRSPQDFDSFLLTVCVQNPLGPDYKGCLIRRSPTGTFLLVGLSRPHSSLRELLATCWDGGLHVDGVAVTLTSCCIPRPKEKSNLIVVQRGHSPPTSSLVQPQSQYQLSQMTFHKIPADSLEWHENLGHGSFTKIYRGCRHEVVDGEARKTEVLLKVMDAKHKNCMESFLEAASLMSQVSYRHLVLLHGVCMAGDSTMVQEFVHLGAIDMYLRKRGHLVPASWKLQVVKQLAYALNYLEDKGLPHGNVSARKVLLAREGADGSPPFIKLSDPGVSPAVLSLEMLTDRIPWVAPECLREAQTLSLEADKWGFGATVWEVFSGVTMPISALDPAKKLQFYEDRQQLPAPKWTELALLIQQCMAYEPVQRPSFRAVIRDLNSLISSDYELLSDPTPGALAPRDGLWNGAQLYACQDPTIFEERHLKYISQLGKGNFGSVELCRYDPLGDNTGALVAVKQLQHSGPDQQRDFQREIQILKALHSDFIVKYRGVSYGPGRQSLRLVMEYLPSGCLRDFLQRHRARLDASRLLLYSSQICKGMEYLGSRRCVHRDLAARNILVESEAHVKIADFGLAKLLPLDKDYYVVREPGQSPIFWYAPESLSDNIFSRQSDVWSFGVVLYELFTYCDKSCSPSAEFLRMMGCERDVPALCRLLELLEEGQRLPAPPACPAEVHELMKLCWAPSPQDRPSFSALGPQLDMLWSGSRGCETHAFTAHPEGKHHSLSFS
Kind of assay: Inhibition of a panel of kinases, in vitro HotSpot kinase assay: JAK3. The following applies: D-compounds panel data; 1 μM ATP; read-out: IC50 JAK3. It is filed as biochemical.

In the next assay the target is EGFR (Homo sapiens, UniProt P00533). Kind of assay: Inhibition of a panel of kinases, in vitro HotSpot kinase assay: EGFR. Type of assay: biochemical. The following applies: D-compounds panel data; 1 μM ATP. The protocol:
The degree of inhibition of a panel of kinases is determined using the in vitro HotSpot kinase assay (purified enzymes, ^33P-ATP, an appropriate substrate and 1 μM ATP).

Chain of EGFR (P00533 25-1210): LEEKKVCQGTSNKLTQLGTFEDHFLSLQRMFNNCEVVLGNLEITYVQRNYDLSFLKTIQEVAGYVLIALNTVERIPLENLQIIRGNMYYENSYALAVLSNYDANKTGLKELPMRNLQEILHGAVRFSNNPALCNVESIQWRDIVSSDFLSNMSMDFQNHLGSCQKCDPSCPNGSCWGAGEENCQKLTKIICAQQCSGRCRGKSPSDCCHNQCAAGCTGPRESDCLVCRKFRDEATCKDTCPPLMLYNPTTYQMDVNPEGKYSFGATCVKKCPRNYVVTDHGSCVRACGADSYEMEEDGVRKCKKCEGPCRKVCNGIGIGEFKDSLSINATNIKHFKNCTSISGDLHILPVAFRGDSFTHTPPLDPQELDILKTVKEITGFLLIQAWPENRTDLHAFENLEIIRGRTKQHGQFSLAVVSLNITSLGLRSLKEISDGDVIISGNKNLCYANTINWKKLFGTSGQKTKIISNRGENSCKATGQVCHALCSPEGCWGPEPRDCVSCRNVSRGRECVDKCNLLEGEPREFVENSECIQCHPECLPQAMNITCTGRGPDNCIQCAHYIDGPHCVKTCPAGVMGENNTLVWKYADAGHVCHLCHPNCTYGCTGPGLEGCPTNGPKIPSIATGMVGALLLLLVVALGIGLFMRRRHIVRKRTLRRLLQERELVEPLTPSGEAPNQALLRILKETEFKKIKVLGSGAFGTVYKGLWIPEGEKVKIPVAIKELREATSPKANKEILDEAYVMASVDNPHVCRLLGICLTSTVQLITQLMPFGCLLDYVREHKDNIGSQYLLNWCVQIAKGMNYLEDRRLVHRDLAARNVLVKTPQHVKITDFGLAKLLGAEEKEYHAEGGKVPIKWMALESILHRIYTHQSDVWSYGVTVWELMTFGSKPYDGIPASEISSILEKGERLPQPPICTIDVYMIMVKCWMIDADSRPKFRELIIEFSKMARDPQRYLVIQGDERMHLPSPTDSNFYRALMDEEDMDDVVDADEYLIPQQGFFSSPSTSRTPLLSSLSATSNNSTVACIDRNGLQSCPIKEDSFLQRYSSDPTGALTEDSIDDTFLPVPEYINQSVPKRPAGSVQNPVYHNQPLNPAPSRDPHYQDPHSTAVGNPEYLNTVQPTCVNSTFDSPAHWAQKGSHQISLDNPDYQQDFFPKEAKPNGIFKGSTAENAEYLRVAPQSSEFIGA

On to `C[C@@H]1[C@H](NC(=O)c2ccc(C3CC3)nc2)CCCN1c1cnc(C(N)=O)c(Nc2ccc(OC3CCN(C)CC3)cc2)n1` [Example D-294, 5-[(2R,3R)-3-(6-cyclopropylpyridine-3-amido)-2-methylpiperidin-1-yl]-3-({4-[(1-methylpiperidin-4-yl)oxy]phenyl}amino)pyrazine-2-carboxamide], for which the IC50 on JAK3 and on EGFR was 0.1 to 1 µM in each case.
Regarding `C[C@@H]1[C@H](NC(=O)c2ccc(C3CC3)cc2)CCCN1c1cnc(C(N)=O)c(NCC2=CCN(C)CC2)n1` [Example D-300, 5-[(2R,3R)-3-(4-cyclopropylbenzamido)-2-methylpiperidin-1-yl]-3-{[(1-methyl-1,2,3,6-tetrahydropyridin-4-yl)methyl]amino}pyrazine-2-carboxamide], the IC50 on JAK3 and on EGFR was > 10 µM in each case.
Take `C[C@@H]1[C@H](NC(=O)c2ccc(C3CC3)cc2)CCCN1c1cnc(C(N)=O)c(Nc2cnn(CCO)c2)n1` [Example D-281, 5-[(2R,3R)-3-(4-cyclopropylbenzamido)-2-methylpiperidin-1-yl]-3-{[I-(2-hydroxyethyl)-1H-pyrazol-4-yl]amino}pyrazine-2-carboxamide]: the IC50 at JAK3 and at EGFR was 1 to 10 µM each time.
For the compound `C[C@@H]1[C@H](NC(=O)c2ccc(C(C)(C)C#N)cc2)CCCN1c1cnc(C(N)=O)c(Nc2ccc(OC3CCN(C)CC3)cc2)n1` [Example D-292, 5-[(2R,3R)-3-[4-(1-cyano-1-methylethyl)benzamido]-2-methylpiperidin-1-yl]-3-({4-[(1-methylpiperidin-4-yl)oxy]phenyl}amino)pyrazine-2-carboxamide], the IC50 lay within 1 to 10 µM at JAK3 and 0.1 to 1 µM on EGFR.
As for `C[C@@H]1[C@H](NC(=O)c2ccc(C3CC3)cn2)CCCN1c1cnc(C(N)=O)c(Nc2cnn(C)c2)n1` [Example D-21, 5-[(2R,3R)-3-(5-cyclopropylpyridine-2-amido)-2-methylpiperidin-1-yl]-3-[(1-methyl-1H-pyrazol-4-yl)amino]pyrazine-2-carboxamide], the IC50 at JAK3 and at EGFR was 1 to 10 µM throughout.

These data come from patent publication US20210070748A1, “INHIBITORS OF BRUTONS TYROSINE KINASE” (Pharmacyclics LLC, priority 2015, published 2021).
